Results from ChEMBL document CHEMBL1201862, “PubChem BioAssay data set” (2004).
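Five compound concentrations were applied to cells in 96-well plates for 48 hours; endpoints were derived by simple linear interpolation of the resulting dose-response curve. Abbreviation: GI50, concentration required for 50% inhibition of growth.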 The source made the active and inactive calls. Rule as the data show it: active = GI50 up to about 1.1 µM and inactive = higher.

Columns and labels:
Assay in all cases: inhibition of tumour cell growth, NCI panel, 48 h
SF-295 = system: SF-295
NCI-H23 = system: NCI-H23
UACC-62 = system: UACC-62
K562 = system: K562
HT-29 = system: HT-29
SK-MEL-5 = system: SK-MEL-5
A498 = system: A498
Hs-578T = system: Hs-578T
CAKI-1 = system: CAKI-1
SNB-19 = system: SNB-19
786-0 = system: 786-0
LOX IMVI = system: LOX IMVI
SN12C = system: SN12C
SK-OV-3 = system: SK-OV-3
KM12 = system: KM12
UACC-257 = system: UACC-257
SNB-75 = system: SNB-75
RPMI-8226 = system: RPMI-8226
NCI-H522 = system: NCI-H522

Measured: GI50

O=C(/C=C/c1ccsc1)c1ccc(Cl)cc1
inactive: SF-295 > 100 µM | NCI-H23 35.3 µM | UACC-62 41.6 µM | K562 20.6 µM | HT-29 36.5 µM | SK-MEL-5 > 100 µM | A498 45 µM | Hs-578T 57.8 µM | CAKI-1 > 100 µM | SNB-19 53.8 µM | 786-0 89.5 µM | LOX IMVI 25.5 µM | SN12C 43.4 µM | SK-OV-3 > 100 µM | KM12 35.3 µM | UACC-257 > 100 µM | SNB-75 > 100 µM | RPMI-8226 21 µM

CCOC(=O)[C@@]12NN=N[C@@H]1[C@H]1CO[C@H](c3ccccc3)N1C2=O
inactive: SF-295 11.6 µM | NCI-H23 12.5 µM | UACC-62 7.6 µM | HT-29 13.5 µM | SK-MEL-5 11.1 µM | A498 10.6 µM | NCI-H522 3.01 µM | Hs-578T 4.6 µM | CAKI-1 11 µM | SNB-19 10.2 µM | 786-0 5.97 µM | LOX IMVI 2.18 µM | SN12C 11.1 µM | SK-OV-3 18.2 µM | KM12 13.1 µM | UACC-257 6.44 µM | RPMI-8226 3.24 µM

Nc1nc(N)c2ncn(CC3CCC(CO)C3)c2n1 (configuration not stated)
inactive: SF-295 > 100 µM | UACC-62 > 100 µM | K562 > 100 µM | SK-MEL-5 > 100 µM | A498 > 100 µM | Hs-578T > 100 µM | CAKI-1 > 100 µM | SNB-19 > 100 µM | 786-0 > 100 µM | LOX IMVI > 100 µM | SN12C > 100 µM | SK-OV-3 > 100 µM | KM12 > 100 µM | UACC-257 > 100 µM | SNB-75 > 100 µM | RPMI-8226 > 100 µM

CCO/C(Cc1ccc(Cl)cc1)=N/NC(N)=S
inactive: SF-295 > 100 µM | NCI-H23 > 100 µM | UACC-62 > 100 µM | K562 83 µM | HT-29 > 100 µM | SK-MEL-5 84.5 µM | A498 > 100 µM | Hs-578T > 100 µM | CAKI-1 > 100 µM | SNB-19 > 100 µM | 786-0 > 100 µM | LOX IMVI > 100 µM | SN12C > 100 µM | SK-OV-3 > 100 µM | KM12 > 100 µM | UACC-257 > 100 µM | SNB-75 > 100 µM

O=c1[nH]c(=O)n(C2OC(CO)C(O)C2O)c2ccsc12 (configuration not stated)
inactive: SF-295 > 100 µM | NCI-H23 > 100 µM | K562 > 100 µM | HT-29 > 100 µM | SK-MEL-5 > 100 µM | A498 > 100 µM | NCI-H522 > 100 µM | Hs-578T > 100 µM | CAKI-1 > 100 µM | 786-0 > 100 µM | LOX IMVI > 100 µM | SN12C > 100 µM | KM12 > 100 µM | UACC-257 > 100 µM | SNB-75 > 100 µM | RPMI-8226 > 100 µM

CC(=O)O[C@H]1CC[C@@H](OC(C)=O)[C@H]2[C@H](O)[C@H](O)[C@@H]1n1c(=O)n(-c3ccccc3)c(=O)n12
inactive: SF-295 > 100 µM | NCI-H23 > 100 µM | UACC-62 > 100 µM | K562 > 100 µM | HT-29 > 100 µM | SK-MEL-5 > 100 µM | A498 > 100 µM | NCI-H522 > 100 µM | Hs-578T > 100 µM | CAKI-1 > 100 µM | SNB-19 > 100 µM | 786-0 > 100 µM | LOX IMVI > 100 µM | SN12C > 100 µM | KM12 > 100 µM | UACC-257 > 100 µM | RPMI-8226 > 100 µM

C#C[C@]1(O)CC[C@H]2[C@@H]3CCC4=C/C(=N/CCOC(=O)c5cccc6c(=O)c7ccccc7[nH]c56)CC[C@@H]4[C@H]3CC[C@@]21C
inactive: SF-295 23 µM | NCI-H23 32.7 µM | UACC-62 36.8 µM | K562 36.4 µM | HT-29 64.3 µM | SK-MEL-5 28 µM | A498 58.6 µM | NCI-H522 31.4 µM | Hs-578T 35.2 µM | CAKI-1 51.3 µM | SNB-19 90.2 µM | 786-0 42.4 µM | LOX IMVI 28.3 µM | SN12C 74.5 µM | SK-OV-3 51.5 µM | KM12 30.6 µM | UACC-257 43.2 µM

CCOC(=O)c1c(SCCO)n(-c2ccccc2)c(=S)n(-c2ccccc2)c1=O
inactive: SF-295 > 100 µM | NCI-H23 > 100 µM | UACC-62 > 100 µM | K562 > 100 µM | HT-29 > 100 µM | SK-MEL-5 > 100 µM | NCI-H522 > 100 µM | Hs-578T > 100 µM | CAKI-1 > 100 µM | SNB-19 > 100 µM | 786-0 > 100 µM | LOX IMVI > 100 µM | SN12C > 100 µM | SK-OV-3 > 100 µM | KM12 > 100 µM | UACC-257 > 100 µM | SNB-75 > 100 µM | RPMI-8226 > 100 µM

O=C1C[S+]([O-])C23c4cc5ccccc5n4CCC2CCCN13 (configuration not stated)
inactive: SF-295 > 100 µM | NCI-H23 > 100 µM | UACC-62 > 100 µM | K562 > 100 µM | HT-29 > 100 µM | SK-MEL-5 > 100 µM | A498 > 100 µM | NCI-H522 > 100 µM | Hs-578T > 100 µM | CAKI-1 > 100 µM | SNB-19 > 100 µM | 786-0 > 100 µM | LOX IMVI > 100 µM | SN12C > 100 µM | SK-OV-3 > 100 µM | KM12 > 100 µM | UACC-257 > 100 µM | RPMI-8226 > 100 µM

N#Cc1c(N2CCC(O)C2)c2ccccc2n2c1nc1ccccc12 (configuration not stated)
inactive: SF-295 31 µM | NCI-H23 67.6 µM | UACC-62 > 100 µM | HT-29 > 100 µM | SK-MEL-5 > 100 µM | A498 31.3 µM | NCI-H522 47.5 µM | Hs-578T 29.2 µM | CAKI-1 37.9 µM | SNB-19 32.1 µM | 786-0 17.1 µM | LOX IMVI > 100 µM | SN12C 72.4 µM | KM12 > 100 µM | UACC-257 > 100 µM | SNB-75 25.1 µM | RPMI-8226 > 100 µM

Cc1ccc(/N=N/c2cc(=O)[nH]c(=O)[nH]2)cc1C
inactive: SF-295 15.3 µM | K562 2.79 µM | HT-29 1.97 µM | SK-MEL-5 15.8 µM | A498 18.4 µM | Hs-578T > 10 µM | SNB-19 17.2 µM | 786-0 2.82 µM | LOX IMVI 1.71 µM | SN12C 4.74 µM | KM12 12.1 µM | UACC-257 13.7 µM | SNB-75 3.9 µM | RPMI-8226 3.01 µM

C=Cc1c(C)c(O)cc2c1-c1ccc(O)c(C)c1CC2
inactive: SF-295 14.9 µM | NCI-H23 17.1 µM | UACC-62 7.5 µM | HT-29 23.7 µM | SK-MEL-5 16 µM | A498 11.6 µM | NCI-H522 19.4 µM | Hs-578T 3.11 µM | CAKI-1 13.9 µM | SNB-19 24.5 µM | 786-0 15.8 µM | LOX IMVI 16.1 µM | SN12C 17.5 µM | SK-OV-3 17 µM | KM12 14.3 µM | UACC-257 14.8 µM | RPMI-8226 22.4 µM
